Consider ten compounds from ChEMBL document CHEMBL1157021, “Synthesis, structure and affinity of novel 3-alkoxy-1,2-dihydro-3H-1,4-benzodiazepin-2-ones for CNS central and peripheral benzodiazepine receptors” (Eur J Med Chem, 2010).

pIC50, pKi: −log10 of the molar value. Some results are limits rather than exact numbers.

For one assay, the target named is Translocator protein (Rattus norvegicus, UniProt P16257). As to the kind of experiment: Displacement of [3H]PK11195 from peripheral benzodiazepine receptor in Wistar rat brain synaptosomal membrane after 120 mins by scintillation counting.
Chain of Translocator protein (P16257 whole entry, looked up): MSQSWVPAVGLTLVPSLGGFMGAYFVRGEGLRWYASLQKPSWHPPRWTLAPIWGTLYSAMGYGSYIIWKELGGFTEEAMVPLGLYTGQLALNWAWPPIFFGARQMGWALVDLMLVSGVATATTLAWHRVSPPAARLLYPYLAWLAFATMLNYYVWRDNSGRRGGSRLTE
A short description of assay [1]: Displacement of [3H]flumazenil from central benzodiazepine receptor in Wistar rat brain synaptosomal membrane after 60 mins by scintillation counting. (Loss of bound radioactivity is the signal in a displacement assay; it reports binding, not function.)
A short description of assay [2]: Binding affinity to central benzodiazepine receptor.

`COCCO[C@H]1N=C(c2ccccc2)c2cc(Br)ccc2NC1=O`: the figures for the pIC50 (at Translocator protein; in assay [1]) were under 6.00 and 5.31, respectively. Consider `O=C1Nc2ccc(Br)cc2C(c2ccccc2)=NC1OCCO` (centres undefined), for which the figures for the pIC50 (on Translocator protein; in assay [1]) were under 6.00 and 6.27, respectively.

With `COCCO[C@@H]1N=C(c2ccccc2)c2cc(Br)ccc2NC1=O`, the pIC50 at Translocator protein is under 6.00; in assay [1] it was 6.61. For the compound `CCOC1N=C(c2ccccc2Cl)c2cc(Br)ccc2NC1=O` (racemic), the results for the pIC50 (at Translocator protein; in assay [1]) were under 6.00 and 7.28, respectively.

In the case of `CCOC1N=C(c2ccccc2)c2cc(C)ccc2NC1=O` (racemic), the pIC50 (on Translocator protein; in assay [1]) was under 6.00 each time.

As to `O=C1Nc2ccc(Br)cc2C(c2ccccc2Cl)=NC1OCCO` (racemic), the results for the pIC50 (on Translocator protein; in assay [1]) were under 6.00 and 7.32, respectively.

`CCOC1N=C(c2ccccc2)c2cc(Br)ccc2NC1=O` (racemic): the pIC50 (on Translocator protein; in assay [1]) was under 6.00 in each case.

`COCCOC1N=C(c2ccccc2Cl)c2cc(Br)ccc2NC1=O` (racemic): the pIC50 was under 6.00 on Translocator protein and 8.05 in assay [1]. Take `COCCOC1N=C(c2ccccc2)c2cc(Br)ccc2NC1=O` (racemic): the pIC50 on Translocator protein was under 6.00; in assay [1], 6.29.

Compound `O=C(O)CCC(=O)OC1N=C(c2ccccc2Cl)c2cc(Br)ccc2NC1=O` (centres undefined) [CINAZEPAM] gave a negative logarithm of the Ki (pKi) in assay [2] of 7.14.

For orientation: pIC50 means −log10 of the IC50, conventionally taken in molar units. Higher therefore signals a small IC50. What is called pKi is −log10 of the Ki, conventionally taken in molar units. A high value points to a low Ki.
